Values of other authors, collected in patent publication US20070110909A1, “Reduction or elimination of microbial growth and biofouling of salted wet biomass byproducts” (priority 2005, published 2007).

How the values were obtained:
rats, mice and hamsters = conditions: fore-stomachs of rats
animal tests = conditions: birth defects in rats

| SMILES | tumors in animals (rats, mice and hamsters) | toxic effects in animal tests (animal tests) |
| --- | --- | --- |
| COc1ccc(O)c(C(C)(C)C)c1 [BHA, Butylated hydroxyanisole] | caused cancerous tumors | – |
| Cc1cc(C(C)(C)C)c(O)c(C(C)(C)C)c1 [BHT, Butylated hydroxytoluene] | – | caused liver cancer and lung tumors, increased blood cholesterol, reduced growth rates and body weight |
